Data taken from patent EP0075895A2, “Pharmaceutical amides, and preparation, formulations and use thereof” (THE WELLCOME FOUNDATION LIMITED, priority 1981, dated 1983).
Structures can show the parent of a compound that is named as a salt.

Biological target: T1, enkephalinase Al (Rattus norvegicus, UniProt P07861)
T1 construct: the solubilised enzymes contained in the supernatent separated by DEAE-cellulose column chromatograph; from tissue; host or cells: rat striatum (washed membrane pellet, solubilised with Triton X-100, then DEAE-cellulose and Sephacryl S.300 chromatography)
T1 sequence (P07861 1-750): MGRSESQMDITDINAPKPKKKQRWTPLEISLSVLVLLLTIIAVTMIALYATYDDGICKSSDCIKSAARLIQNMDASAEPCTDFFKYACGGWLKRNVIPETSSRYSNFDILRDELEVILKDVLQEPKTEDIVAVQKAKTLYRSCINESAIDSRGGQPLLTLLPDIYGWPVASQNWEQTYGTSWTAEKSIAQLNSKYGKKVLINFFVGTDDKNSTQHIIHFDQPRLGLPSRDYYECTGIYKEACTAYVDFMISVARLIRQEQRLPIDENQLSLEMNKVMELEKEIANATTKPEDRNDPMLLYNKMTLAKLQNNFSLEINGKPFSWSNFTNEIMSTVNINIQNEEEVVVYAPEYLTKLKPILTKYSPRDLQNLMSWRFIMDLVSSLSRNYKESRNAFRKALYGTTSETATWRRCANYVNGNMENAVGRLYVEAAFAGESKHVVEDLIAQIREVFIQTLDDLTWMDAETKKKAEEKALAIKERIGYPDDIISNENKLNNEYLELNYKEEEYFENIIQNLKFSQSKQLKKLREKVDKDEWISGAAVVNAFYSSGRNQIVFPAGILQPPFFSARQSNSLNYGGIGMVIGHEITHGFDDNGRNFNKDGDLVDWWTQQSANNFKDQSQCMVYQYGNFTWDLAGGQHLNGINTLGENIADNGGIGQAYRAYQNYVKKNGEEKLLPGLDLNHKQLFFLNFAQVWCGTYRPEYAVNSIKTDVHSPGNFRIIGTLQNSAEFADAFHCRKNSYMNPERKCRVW
Test: enkephalinase-inhibiting activity (3H-TGG generation from 3H-leucine enkephalin, TLC separation, scintillation counting)
Type: biochemical, Rats
Conditions: approximate IC50 determined graphically; concentration required for 50% inhibition of 3H-TGG generation; leucine enkephalin 5 x 10^-5M, 30°C
Source text: Rats were killed by decapitation and the striata dissected out on ice. […] The resulting supernatent was discarded and the remaining pellet washed three times.
Enkephalinase-inhibiting activity was estimated by the following procedure.

Row | Compound | IC50
1 | O=C(O)CNC(=O)[C@H](Cc1ccccc1)NP(=O)(O)O [compound 2, N-Phosphoryl-L-phenylalanyl-glycine trisodium salt] | 15 nM
2 | N-(Phosphoryl-phenylalanyl)leucine [compound 1] | 7 nM
